What was measured:
[1] = system: AgGluCl; set-up: method as in PMID 7935817, PMID 8702744, PMID 25994631; conditions: read-out: EC50 glutamate; cited from earlier work
[2] = system: HcGluClα; set-up: method as in PMID 7935817, PMID 8702744, PMID 25994631; conditions: read-out: EC50 glutamate; cited from earlier work
[3] = system: CrGluCl-B Q327T mutant; test: Voltage-clamp of oocytes expressing CrGluCl-B Q327T mutant; format: cell-based, Caligus rogercresseyi; conditions: 1 μM ivermectin, ANOVA P<0.05
Description: (§1) To identify putative GluCl subunits, we queried the NCBI Transcriptome Shotgun Assembly Sequence (TSA) Database for “glutamate-gated chloride channel Caligus”. The obtained sequences were translated and BLASTed (tBLASTn) against the C. rogercresseyi genome (WGS, BioProject ID 280098, NCBI) and against transcripts of L. salmonis database (https://licebase.org/). Primers for each of the putative new subunit found were designed to span the full length of the open reading frame (ORF) for each of them (B-E) (S1 Table, and arrows in Fig 1). Complete cDNAs were generated by RT-PCR from adult C. rogercresseyi samples from which putative full-length peptide sequences of CrGluCl-B, CrGluCl-C, CrGluCl-D and CrGluCl-E were obtained. Each PCR product was cloned in pGEM-T easy vector and sequenced. […]
(§2) Current measurements at controlled membrane potentials (voltage-clamp experiments) were performed using two intracellular microelectrodes in defolliculated Xenopus oocytes previously microinjected with 20 ng of cRNA. […] The oocytes were recorded in a chamber (Model RC-1Z, Warner Instrumenst, USA) under continuous superfusion. […] Currents were recorded continuously during the experiments without interruptions for solution changes. […] The signal filtered at 1 kHz was acquired with a Digidata 1440A Analog-to-Digital Converter and analyzed with Axon pClamp 10.6 software. […]

[4] = system: coexpressed CrGluCl-D:CrGluCl-B; test: Voltage-clamp of oocytes coexpressing CrGluCl-D and CrGluCl-B; format: cell-based, Caligus rogercresseyi; conditions: B:D ratio 1:1
Description: Adult female Xenopus laevis frogs were anaesthetized by immersion in a1g/L solution tricaine (Ethyl 3-aminobenzoate methanesulfonate, Sigma) buffered to pH 7 with NaHCO3. Surgery was performed 30–40 min later, once the frog was completely anaesthetized judging by loss of reflexes. Ovarian lobes were removed through 1 cm abdominal incision and then kept at 16°C in Barth’s modified solution containing (in mM): 88 NaCl, 1 KCl, 0.4 CaCl2, 0.3 Ca (NO3)2, 0.8 MgSO4, 2.4 NaHCO3, 5 Hepes, 2.5 sodium pyruvate, 100 μg/ml gentamicin sulfate, 100 U/ml penicillin, 100 μg/ml streptomycin, 250 μg/ml amphotericin B, 0.22μm filtered and adjusted to pH 7.5 with Tris-Base. Osmolarity was brought to 220 mOsm with saccharose. […]
as §2

[5] = system: CrGluCl-B M340T mutant; test: Voltage-clamp of oocytes expressing CrGluCl-B M340T mutant; format: cell-based, Caligus rogercresseyi; conditions: 1 μM ivermectin
Description: as §1, §2

[6] = system: CrGluCl-B Y361F mutant; test: Voltage-clamp of oocytes expressing CrGluCl-B Y361F mutant; format: cell-based, Caligus rogercresseyi; conditions: 1 μM ivermectin, one-sample t-test
Description: as §1, §2

| Molecule | EC50 [1] [µM] | EC50 [2] [µM] | effect of ivermectin on current compared with WT [3] | nH (ivermectin) [4] | EC50 ([4]; read-out: EC50 ivermectin (Iver response to activation)) [µM] | effect of ivermectin on current [5] | effect of ivermectin on current [6] |
| --- | --- | --- | --- | --- | --- | --- | --- |
| N[C@@H](CCC(=O)O)C(=O)O [glutamate, L-glutamate] | 30 | 28 | – | – | – | – | – |
| ivermectin | – | – | significantly greater | 2.6 ± 1.1 | 0.278 ± 0.053 | no effect | small but significant effects |

— article PMC10038264, “A new family of glutamate-gated chloride channels in parasitic sea louse Caligus rogercresseyi: A subunit refractory to activation by ivermectin is dominant in heteromeric assemblies” (PLOS Pathogens, 2023)
